pIC50, pKd: −log10 of the molar value. Like-named read-outs stand apart in the source and are kept apart here.
Columns and labels:
[1] = target: T1, N-terminally FLAG-tagged PARP2 (amino acids 1-583) (Homo sapiens, UniProt Q9UGN5); test: PARP2 probe displacement HTRF assay; type: binding; conditions: binned Kd
T1 construct: N-terminally FLAG-tagged PARP2 (amino acids 1-583)
Experimental: Data analysis was performed identical as for PARP1.

[2] = target: T2, full length N-terminally FLAG-tagged PARP1 (Homo sapiens, UniProt P09874); test: PARP1 probe displacement HTRF assay; conditions: for Selectivity: PARP1 over PARP2, ratio Kd (PARP2)/Kd (PARP1); for pKd: binned Kd
[3] = target: T2, full length N-terminally FLAG-tagged PARP1; test: PARP1 biochemical DELFIA assay (auto-PARylation); design: recombinant full length human N-terminally FLAG-tagged PARP1
[4] = read-out: PARP1 HTRF, PARP1 probe displacement HTRF
[5] = binned IC50, PARP1 biochemical DELFIA assay
[6] = read-out: PARP1 HTRF, probe displacement HTRF
[7] = binned IC50, biochemical auto-PARylation assay
[8] = PARP1 HTRF, PARP1 probe displacement HTRF

T1 sequence (Q9UGN5 whole entry, the tested form may be a part): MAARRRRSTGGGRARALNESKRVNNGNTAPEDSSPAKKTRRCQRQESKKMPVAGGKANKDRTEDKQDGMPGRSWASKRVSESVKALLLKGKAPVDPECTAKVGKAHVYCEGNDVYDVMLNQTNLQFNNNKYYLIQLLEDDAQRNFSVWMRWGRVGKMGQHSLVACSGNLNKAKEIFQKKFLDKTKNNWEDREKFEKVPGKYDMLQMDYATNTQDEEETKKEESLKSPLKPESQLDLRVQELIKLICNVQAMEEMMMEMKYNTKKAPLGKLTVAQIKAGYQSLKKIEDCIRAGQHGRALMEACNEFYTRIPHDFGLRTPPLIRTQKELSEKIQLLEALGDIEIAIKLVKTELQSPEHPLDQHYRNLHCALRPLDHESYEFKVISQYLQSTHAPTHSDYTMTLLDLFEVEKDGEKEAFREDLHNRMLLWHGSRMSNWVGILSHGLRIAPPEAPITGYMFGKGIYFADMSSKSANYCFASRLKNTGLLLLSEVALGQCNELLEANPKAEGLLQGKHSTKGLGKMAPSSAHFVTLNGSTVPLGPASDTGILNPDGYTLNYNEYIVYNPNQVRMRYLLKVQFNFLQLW
T2 sequence (P09874 whole entry): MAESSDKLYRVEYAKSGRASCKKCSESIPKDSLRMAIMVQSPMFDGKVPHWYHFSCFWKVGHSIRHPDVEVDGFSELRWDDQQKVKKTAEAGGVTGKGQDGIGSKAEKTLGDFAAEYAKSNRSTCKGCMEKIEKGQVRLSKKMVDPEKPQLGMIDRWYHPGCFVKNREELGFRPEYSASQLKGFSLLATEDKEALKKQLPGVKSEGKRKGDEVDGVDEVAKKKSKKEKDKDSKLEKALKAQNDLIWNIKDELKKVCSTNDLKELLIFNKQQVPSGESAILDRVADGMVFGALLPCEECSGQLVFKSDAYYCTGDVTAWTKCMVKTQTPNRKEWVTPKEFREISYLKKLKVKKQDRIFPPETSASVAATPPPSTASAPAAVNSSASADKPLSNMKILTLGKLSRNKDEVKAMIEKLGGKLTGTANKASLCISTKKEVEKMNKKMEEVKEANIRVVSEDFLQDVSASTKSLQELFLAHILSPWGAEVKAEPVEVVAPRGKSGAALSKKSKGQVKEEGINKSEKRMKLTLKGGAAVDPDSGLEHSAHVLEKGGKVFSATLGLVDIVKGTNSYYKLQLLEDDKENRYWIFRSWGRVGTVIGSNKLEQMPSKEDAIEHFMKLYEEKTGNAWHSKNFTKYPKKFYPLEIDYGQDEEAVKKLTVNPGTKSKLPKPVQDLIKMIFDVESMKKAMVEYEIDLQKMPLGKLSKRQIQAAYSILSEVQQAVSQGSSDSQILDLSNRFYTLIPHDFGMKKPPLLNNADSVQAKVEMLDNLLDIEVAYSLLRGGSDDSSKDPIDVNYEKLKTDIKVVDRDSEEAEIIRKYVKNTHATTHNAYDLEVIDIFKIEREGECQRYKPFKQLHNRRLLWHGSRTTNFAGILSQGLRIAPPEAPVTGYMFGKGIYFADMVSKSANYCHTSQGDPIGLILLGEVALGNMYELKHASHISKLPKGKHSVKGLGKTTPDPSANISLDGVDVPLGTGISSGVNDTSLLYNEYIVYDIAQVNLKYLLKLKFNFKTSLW

pKd ([1]; PARP2 probe displacement HTRF) | pKd [2, 4] | pIC50 [3, 5] | pKd ([1]; probe displacement HTRF) | pKd [2, 6] | pIC50 [3, 7] | pKd [2, 8] | pKd ([2]; PARP1 HTRF, probe displacement HTRF) | Compound | Selectivity ([2]; probe displacement HTRF)
– | – | – | 6.00 to 7.00 | > 8.00 | > 8.00 | – | – | O=C(NCC(F)F)c1ccc(N2CCC(N3CCC(c4cc5ccc(F)cc5c(=O)[nH]4)C3)CC2)c(F)n1 (single isomer, unassigned) [Compound 399a] | +++ (+++ indicate a value of at least 100)
– | – | – | 6.00 to 7.00 | 7.00 to 8.00 | 7.00 to 8.00 | – | – | CNC(=O)c1cc(Cl)c(N2CCC(N3CCC(c4cc5ccc(F)cc5c(=O)[nH]4)C3)CC2)cn1 (single isomer, unassigned) [Compound 236a] | + (+ indicates a value of 10 to less than 50)
– | – | – | 6.00 to 7.00 | > 8.00 | > 8.00 | – | – | CNC(=O)c1ccc(N2CCC(N3CCC(c4[nH]c(=O)c5cc(F)ccc5c4F)C3)CC2)cn1 (single isomer, unassigned) [Compound 370a] | +++ (+++ indicate a value of at least 100)
– | – | – | < 5.00 | > 8.00 | > 8.00 | – | – | O=C(NC1CC1)c1ccc(N2CCC(N3CCC(c4cc5cccc(F)c5c(=O)[nH]4)C3)CC2)c(F)n1 (single isomer, unassigned) [Compound 349a] | +++ (+++ indicate a value of at least 100)
– | – | – | 5.00 to 6.00 | – | > 8.00 | – | > 8.00 | N#Cc1ccc(N2CCC(N3CC4(c5nc6ccc(F)cc6c(=O)[nH]5)CC3C4)CC2)c(Cl)c1 [Compound 381] | +++ (+++ indicate a value of at least 100)
– | – | – | 5.00 to 6.00 | 6.00 to 7.00 | 6.00 to 7.00 | – | – | N#Cc1ccc(N2CCC(N3CCC(c4cc5cccc(F)c5c(=O)[nH]4)C3)CC2)c(F)c1 (single isomer, unassigned) [Compound 356b] | + (+ indicates a value of 10 to less than 50)
– | – | – | 5.00 to 6.00 | > 8.00 | > 8.00 | – | – | CNC(=O)c1ccc(N2CCC(N3CCC(c4nc5c(c(=O)[nH]4)CCC5)C3)CC2)cn1 (single isomer, unassigned) [Compound 283b] | +++ (+++ indicate a value of at least 100)
– | – | – | < 5.00 | < 5.00 | < 5.00 | – | – | CNC(=O)c1ccc(N2CCC(N3CCC(c4nc5c(c(=O)[nH]4)COC5)C3)CC2)cn1 (single isomer, unassigned) [Compound 272a] | − (− indicates a value of less than 10)
– | – | – | < 5.00 | 7.00 to 8.00 | 7.00 to 8.00 | – | – | CNC(=O)c1ccc(N2CCC(N3CCC(c4ccc(CCO)c(=O)[nH]4)C3)CC2)cn1 (racemic) [Compound 286rac] | +++ (+++ indicate a value of at least 100)
– | – | – | 6.00 to 7.00 | 7.00 to 8.00 | 7.00 to 8.00 | – | – | CNC(=O)c1cnc(N2CCC(N3CCC(c4nc5ccccc5c(=O)[nH]4)C3)CC2)nc1 (racemic) [Compound 318rac] | + (+ indicates a value of 10 to less than 50)

Further lines, the compound ahead of its results:

Compound | pKd ([1]; PARP2 probe displacement HTRF) | pKd [2, 4] | pIC50 [3, 5] | pKd ([1]; probe displacement HTRF) | pKd [2, 6] | pIC50 [3, 7] | pKd [2, 8] | pKd ([2]; PARP1 HTRF, probe displacement HTRF) | Selectivity ([2]; probe displacement HTRF)
CNC(=O)c1ccc(N2CCC(N3CCC(c4nc5c(F)cc(F)cc5c(=O)[nH]4)C3)CC2)cn1 (single isomer, unassigned) [Compound 181a] | 6.00 to 7.00 | 7.00 to 8.00 | 7.00 to 8.00 | – | – | – | – | – | + (+ indicates a value of 10 to less than 50)
CNC(=O)c1ccc(N2CCC(N3CCC(c4nc5sc(C)c(C)c5c(=O)[nH]4)C3)CC2)cn1 (single isomer, unassigned) [Compound 221a] | – | – | – | 6.00 to 7.00 | 7.00 to 8.00 | 7.00 to 8.00 | – | – | + (+ indicates a value of 10 to less than 50)
CNC(=O)c1ccc(N2CCC(N3CCC(C)(c4nc5ccccc5c(=O)[nH]4)C3)CC2)cn1 (single isomer, unassigned) [Compound 67b] | 5.00 to 6.00 | 6.00 to 7.00 | 6.00 to 7.00 | – | – | – | – | – | + (+ indicates a value of 10 to less than 50)
CNC(=O)c1ccc(N2CCC(N3CCC(c4cc5cccc(F)c5c(=O)[nH]4)C3)CC2)c(F)n1 (single isomer, unassigned) [Compound 184a, 6-fluoro-5-[4-[3-(8-fluoro-1-oxo-2H-isoquinolin-3-yl)pyrrolidin-1-yl]piperidin-1-yl]-N-methylpyridine-2-carboxamide] | 5.00 to 6.00 | – | > 8.00 | – | – | – | > 8.00 | – | +++ (+++ indicate a value of at least 100)
N#Cc1ccc(N2CCC(N3CCC(c4nc5ccccc5c(=O)[nH]4)C3)CC2)nc1 (single isomer, unassigned) [Compound 55b] | 6.00 to 7.00 | 7.00 to 8.00 | 7.00 to 8.00 | – | – | – | – | – | − (− indicates a value of less than 10)
CCc1cnc(C2CCN(C3CCC(F)(F)CC3)C2)[nH]c1=O (single isomer, unassigned) [Compound 38b] | < 5.00 | 5.00 to 6.00 | 5.00 to 6.00 | – | – | – | – | – | − (− indicates a value of less than 10)
CCc1ccc(C2CCCN(C3CCN(c4ccc(C(=O)NC)nc4)CC3)C2)[nH]c1=O (single isomer, unassigned) [Compound 53a, 5-{4-[3-(5-ethyl-6-oxo-1H-pyridin-2-yl)piperidin-1-yl]piperidin-1-yl}-N-methylpyridine-2-carboxamide] | 5.00 to 6.00 | – | > 8.00 | – | – | – | > 8.00 | – | +++ (+++ indicate a value of at least 100)
CNC(=O)c1ccc(N2CCC(N3CCC(c4cc5ccc(F)cc5c(=O)[nH]4)C3)CC2)c(C)n1 (single isomer, unassigned) [Compound 196b] | 5.00 to 6.00 | > 8.00 | > 8.00 | – | – | – | – | – | +++ (+++ indicate a value of at least 100)
CNC(=O)c1ccc(N2CCC(N3CCC(c4cc5[nH]nc(C(F)(F)F)c5c(=O)[nH]4)C3)CC2)cn1 (single isomer, unassigned) [Compound 194a, N-methyl-5-(4-(3-(4-oxo-3-(trifluoromethyl)-4,5-dihydro-1H-pyrazolo[4,3-c]pyridin-6-yl)pyrrolidin-1-yl)piperidin-1-yl)picolinamide] | 5.00 to 6.00 | – | 7.00 to 8.00 | – | – | – | 7.00 to 8.00 | – | + (+ indicates a value of 10 to less than 50)
CNC(=O)c1ccc(N2CCC(N3CCOC(c4nc5ccccc5c(=O)[nH]4)C3)CC2)cn1 (single isomer, unassigned) [Compound 58b] | < 5.00 | 7.00 to 8.00 | 7.00 to 8.00 | – | – | – | – | – | ++ (++ indicates a value of 50 to less than 100)
CCNC(=O)c1ccc(N2CCC(N3CCC(c4nc5ccccc5c(=O)[nH]4)C3)CC2)cn1 (single isomer, unassigned) [Compound 111b] | 6.00 to 7.00 | > 8.00 | > 8.00 | – | – | – | – | – | +++ (+++ indicate a value of at least 100)
O=C(NCCF)c1ccc(N2CCC(N3CCCC(c4nc5ccccc5c(=O)[nH]4)C3)CC2)cn1 (single isomer, unassigned) [Compound 110b] | 6.00 to 7.00 | 7.00 to 8.00 | 6.00 to 7.00 | – | – | – | – | – | − (− indicates a value of less than 10)
COCCNC(=O)c1ccc(N2CCC(N3CCC(c4nc5ccccc5c(=O)[nH]4)C3)CC2)cn1 (racemic) [Compound 124rac] | 6.00 to 7.00 | > 8.00 | > 8.00 | – | – | – | – | – | +++ (+++ indicate a value of at least 100)
CNC(=O)c1ccc(N2CCC(N3CCCC(c4ncc(C(F)(F)F)c(=O)[nH]4)C3)CC2)cn1 (single isomer, unassigned) [Compound 73a] | < 5.00 | 6.00 to 7.00 | 6.00 to 7.00 | – | – | – | – | – | − (− indicates a value of less than 10)
CNC(=O)c1ccc(N2CCC(N3CCC(c4cc5ccccc5c(=O)[nH]4)C3)CC2)cn1 (single isomer, unassigned) [Compound 91a] | 6.00 to 7.00 | > 8.00 | > 8.00 | – | – | – | – | – | +++ (+++ indicate a value of at least 100)
CNC(=O)c1ccc(N2CC(N3CCC(c4nc5ccccc5c(=O)[nH]4)C3)C2)cn1 (single isomer, unassigned) [Compound 61b] | 5.00 to 6.00 | > 8.00 | > 8.00 | – | – | – | – | – | +++ (+++ indicate a value of at least 100)
CNC(=O)c1cnc(N2CCC(N3CCCC(c4nc5ccccc5c(=O)[nH]4)C3)CC2)cn1 (single isomer, unassigned) [Compound 99b] | 6.00 to 7.00 | 6.00 to 7.00 | 7.00 to 8.00 | – | – | – | – | – | − (− indicates a value of less than 10)
CNC(=O)c1ccc(N2CCC(N3CCCC(c4ccc(C5CC5)c(=O)[nH]4)C3)CC2)cn1 (single isomer, unassigned) [Compound 126b] | < 5.00 | 6.00 to 7.00 | 6.00 to 7.00 | – | – | – | – | – | + (+ indicates a value of 10 to less than 50)
CCc1ccc(C2CCN(C3CCN(c4ccc(C(N)=O)nc4)CC3)C2)[nH]c1=O (racemic) [Compound 166rac] | 5.00 to 6.00 | > 8.00 | > 8.00 | – | – | – | – | – | +++ (+++ indicate a value of at least 100)
CNC(=O)c1ccc(N2CCC(N3CCCC(c4nc5ccccc5c(=O)[nH]4)CC3)CC2)cn1 (racemic) [Compound 102rac] | 5.00 to 6.00 | > 8.00 | > 8.00 | – | – | – | – | – | +++ (+++ indicate a value of at least 100)
CNC(=O)c1ccc(N2CCC(N3CCC(c4ccc(CC5CC5)c(=O)[nH]4)C3)CC2)cn1 (single isomer, unassigned) [Compound 213b] | 6.00 to 7.00 | > 8.00 | > 8.00 | – | – | – | – | – | +++ (+++ indicate a value of at least 100)
